Entries after “also recorded” stand apart in the source; their conditions may differ. Structures can show the parent of a compound that is named as a salt.
What was measured:
[1] = forced degradation of bupropion HBr and HCl in the presence of excipients at 55° C., 55° C./100% RH, 100° C., 105° C. (incl. TGA at 100° C.); assay type: physicochemical; details: TGA experiment at 100° C.
Method: Further forced degradation studies were carried out at 55° C., at 55° C. and 100% relative humidity, at 100° C., and at 105° C. on both the HCl and HBr Bupropion salts in the presence of excipients. […] FIG. 53 is a graph showing the loss of each salt over time in a TGA experiment at 100° C.

CD-1 mice [2] = assay: cortical EEG and behaviour in mice at convulsive and non-convulsive doses; details: 150 mg/kg i.p.; for seizure-like behavioural activity over time, second study pair: time after injection
Method: Test system: 30 healthy female mice, of strain CD-1, having a bodyweight of 25-29 g, were acclimatized for a minimum period of 4 days and used for this study. Each animal, after allocation to groups, was identified by markings on the dorsal surface of the tail. Environmental conditions included a temperature of 22±3° C., and artificial lighting of 12 hours light/dark cycle. Routine activities such as cleaning, feeding and watering were performed according to the RCSl's current SOPS.
The diluent used was 0.9% sodium chloride solution. Storage temperature was at about 25° C.
Test Item Administration: The test item was administered intraperitoneally using a disposable syringe with a 1 ml syringe and 26 g needle. The route of administration was intraperitoneal.
Protocol: Habituated mice were anesthetized with isofolurane, placed in a stereotaxic frame and maintained normothermic (36-37° C.) by means of a feedback-controlled mouse-designed homeothermic blanket (Harvard Apparatus). Under isoflurane anaesthesia, a midline skill incision was made over the skull and the skull exposed. Three partial craniectomies were performed: one overlying each temporal lobe and a third across the region overlying frontal cortex. Mouse-sized cranial EEG (E363/20, electrode with mounting screw and socket, Plastics One Inc) were affixed at each point. The electrode assembly was affixed to the skull with dental cement and then anaesthesia discontinued and the animal placed in the recording chamber for 30-60 minutes after recovery. Electrodes were then connected to a multichannel 363 Connector Cable system with SL6C 6 channel swivel commutator and baseline EEG recordings commenced using a Grass model Comet Portable 40-channel Digital EEG & Review System with Twin digital EEG in tandem with continuous digital video. […] Mice were run in parallel so that a hydrochloride mouse was injected within minutes of a hydrobromide mouse and recordings made simultaneously. Video-EEG was recorded for a period of one (1) hour. Afterwards, mice were returned to cages and then euthanized at 24 h and brains harvested.
Analysis: The duration of type IV polyspike high frequency (>1 Hz) high amplitude (>2× baseline) was determined for each mouse over the 1 h recording period.

CD-1 mice [3] = assay: clonic convulsions in CD-1 mice after intraperitoneal dosing (range finding and main study)
Method: Two studies were performed to investigate the relative proconvulsant properties of the two bupropion salts. In the first instance a range finding study was performed to establish the appropriate dose range for the main study. In each study the mice were divided into two dose groups and injected intraperitoneally with either bupropion HCl or bupropion HBr.
A clonic convulsion was defined as a stiffening of the animal followed by jerking movements. The convulsions were classified as mild, moderate and severe according to the following descriptions.
Mild: Head and tail slightly extended and little jerking
Moderate: Head and tail fully extended with some jerking
Severe: Head and tail fully extended with strong jerking
Post-treatment findings recorded included continuous observation for 120 minutes for evidence of clonic convulsions, and intermittent (fixed) observations for 24 hours for other signs, including tonic convulsions, movement, activity, paralysis, gait and evidence of recovery.

mice = assay: Proconvulsant properties of bupropion salts: clonic convulsions in mice; details: for Mean Number of Convulsions/Mouse / Total Number of convulsions: N=13
Method: Number of convulsions and the intensity of the convulsions were recorded.
Mild: Head and tail slightly extended and little jerking; Moderate: Head and tail fully extended with some jerking; Severe: Head and tail fully extended with strong jerking. […] Step 2: To further investigate the patterns of convulsion occurrence using loglinear Poisson regression models. The number of convulsions was analyzed using the loglinear Poisson regression models with formulation, dose, and severity as predictors.

[4] = 100 mg/kg i.p., pooled data N = 13/dose group, hydrochloride
[5] = 150 mg/kg i.p., pooled data N = 13/dose group, hydrochloride
[6] = 150 mg/kg, Moderate, hydrochloride
[7] = 150 mg/kg, Severe, hydrochloride

## CC(NC(C)(C)C)C(=O)c1cccc(Cl)c1.Cl (racemic) [bupropion hydrochloride, (±)-1-(3-chlorophenyl)-2-[(1,1-dimethylethyl)amino]-1-propanone hydrochloride]
[1]
  disproportionation of the salt at elevated temperatures (TGA, loss of API): disproportionation of the HCl salt occurs with concomitant loss of gaseous HCl
CD-1 mice [2]; n=4 per salt, cortical electrodes, 1 h, listed as HCl, hydrochloride
  seizure EEG: no seizure EEG; also recorded: two very brief EEG bursts; also recorded: brief burst of seizure
CD-1 mice [2]
  seizure-like behavioural activity over time, second study pair: about 30 mins
CD-1 mice [3]; CD-1 mice
  severity of seizure activity in the initial behavioral study: more severe
mice; 100 mg/kg, All
  Mean Number of Convulsions/Mouse, cumulative: 0.23
mice; loglinear Poisson regression, adjusted for dose and severity
  odds of number of convulsions vs the bupropion hydrobromide group: 1.41

## CC(NC(C)(C)C)C(=O)c1cccc(Cl)c1 (stereo not shown) [Bupropion HCl, bupropion hydrochloride]
CD-1 mice [3]; 75 mg/kg i.p. (as Bupropion HCl, HBr equimolar), range-finding study, N = 3/dose group
  Mean Number of Convulsions/Mouse: 0
CD-1 mice [3]; [4]
  Mean Intensity of Convulsions/Mouse % of Total: Mild: 0.0 % of Total
  Mean Intensity of Convulsions/Mouse % of Total: Moderate: 33.3 % of Total
  Mean Intensity of Convulsions/Mouse % of Total: Severe: 66.7 % of Total
  Mean Number of Convulsions/Mouse: 0.2
  numbers of mice that had convulsions in the dose group: 2/13
CD-1 mice [3]; 100 mg/kg i.p., range-finding study, N = 3/dose group
  numbers of mice that had convulsions in the dose group: 2/3
CD-1 mice [3]; 100 mg/kg i.p., range-finding study, N = 3/dose group, hydrochloride
  Mean Number of Convulsions/Mouse: 1.0
CD-1 mice [3]; 100 mg/kg i.p., second (main) study, N = 10/dose group, hydrochloride
  Mean Number of Convulsions/Mouse: 0
CD-1 mice [3]; 150 mg/kg i.p., pooled data N = 13/dose group
  numbers of mice that had convulsions in the dose group: 13/13
CD-1 mice [3]; [5]
  Mean Intensity of Convulsions/Mouse % of Total: Mild: 8.8 % of Total
  Mean Intensity of Convulsions/Mouse % of Total: Moderate: 12.2 % of Total
  Mean Intensity of Convulsions/Mouse % of Total: Severe: 79.0 % of Total
  Mean Number of Convulsions/Mouse: 71.0
CD-1 mice [3]; 150 mg/kg i.p., range-finding study, N = 3/dose group
  numbers of mice that had convulsions in the dose group: 3/3
CD-1 mice [3]; 150 mg/kg i.p., range-finding study, N = 3/dose group, hydrochloride
  Mean Number of Convulsions/Mouse: 32.0
CD-1 mice [3]; 150 mg/kg i.p., second (main) study, N = 10/dose group
  numbers of mice that had convulsions in the dose group: 10/10
CD-1 mice [3]; 150 mg/kg i.p., second (main) study, N = 10/dose group, hydrochloride
  Mean Number of Convulsions/Mouse: 82.7
CD-1 mice [3]; […] i.p., pooled data N = 13/dose group, hydrochloride
  numbers of mice that had convulsions in the dose group: 13/13
CD-1 mice [3]; […] i.p., range-finding study, N = 3/dose group
  numbers of mice that had convulsions in the dose group: 3/3
CD-1 mice [3]; […] i.p., second (main) study, N = 10/dose group, hydrochloride
  numbers of mice that had convulsions in the dose group: 10/10
CD-1 mice [3]; range finding study, i.p., hydrochloride
  threshold for tonic convulsions: 100 mg/kg
mice; 100 mg/kg, All, hydrochloride
  Mean Number of Convulsions/Mouse, cumulative: 0.23
mice; 100 mg/kg, Mild, hydrochloride
  Mean Number of Convulsions/Mouse: 0.0
  Total Number of convulsions: 0
mice; 100 mg/kg, Moderate
  Mean Number of Convulsions/Mouse: 0.08
  Total Number of convulsions: 1
mice; 100 mg/kg, Severe + Moderate, hydrochloride
  Mean Number of Convulsions/Mouse, cumulative: 0.23
mice; 100 mg/kg, Severe, 120 min observation, hydrochloride
  Mean Number of Convulsions/Mouse: 0.15
mice; 100 mg/kg, Severe, hydrochloride
  Total Number of convulsions: 2
mice; 150 mg/kg, All, hydrochloride
  Mean Number of Convulsions/Mouse, cumulative: 71.00
mice; 150 mg/kg, Mild, hydrochloride
  Mean Number of Convulsions/Mouse: 6.23
  Total Number of convulsions: 81
mice; [6]
  Mean Number of Convulsions/Mouse: 8.69
  Total Number of convulsions: 113
mice; 150 mg/kg, Severe + Moderate, hydrochloride
  Mean Number of Convulsions/Mouse, cumulative: 64.77
mice; [7]
  Mean Number of Convulsions/Mouse: 56.08
  Total Number of convulsions: 729

## Br.CC(NC(C)(C)C)C(=O)c1cccc(Cl)c1 (stereo not shown) [bupropion hydrobromide]
[1]
  disproportionation of the salt at elevated temperatures (TGA, loss of API): did not occur
CD-1 mice [2]; study pairs 1, 2 and 3
  duration of convulsive behavior, hydrobromide versus hydrochloride: lasted longer than the hydrochloride-treated mouse
CD-1 mice [2]
  seizure-like behavioural activity over time, second study pair: still observing rearing and falling, forepaw running and turning in the hydrobromide-treated mouse at 60 minutes
CD-1 mice [3]; […] dose level, pooled data
  reduction in the number of convulsant mice versus HCl salt: 15.4%
mice; 100 mg/kg, All
  Mean Number of Convulsions/Mouse, cumulative: 0.77
